Assay results published in patent publication US12358847B2, “Liquid formulations of urease inhibitors for fertilizers” (Soilgenic Technologies, LLC, priority 2012, dated 2025).

What was measured:
[1] = Accelerated chemical stability of NBPT solutions at 50 °C, HPLC; details: 45 days at 50±1° C.
[2] = in vivo; cited from earlier work
[3] = Dynamic viscosity of protic solvents with DMSO vs. NMP co-solvent (Brookfield viscometer); type: physicochemical; details: 21° C.; in propylene glycol, glycerin, MIPA
Description: Dynamic viscosity measurements were collected for propylene glycol, glycerin, and a representative alkanolamine (monoisopropanolamine, MIPA) with increasing levels of DMSO and NMP. A Brookfield LVDV-E digital rotational viscometer with LVDV-E spindle set (Brookfield Engineering Labs, Inc., Middleboro, Mass.) was employed for this work and was calibrated using Cannon […] general purpose, synthetic base oil viscosity calibration standard solution (Cannon Instrument Company, State College, PA). The sampling was conducted at 21° C.

[4] = in vivo; cited from earlier work; remark: listed apart in the source
[5] = Maximum Allowable Dosage Level per day (California Proposition 65); cited from earlier work
[6] = 25° C.; cited from earlier work

For `CCCCNP(N)(N)=S` [NBPT, N-(n-butyl) thiophosphoric triamide], the “NBPT deterioration at elevated temperature” value (“NBPT deterioration” below) ([1]; solution of example 4: 50% PG, 25% DMSO, 25% NBPT) was “did not have significant deterioration”, the “NBPT deterioration” value ([1]; solution of example 6: 35% PG, 40% DMSO, 25% NBPT) was “did not have significant deterioration” and the “NBPT deterioration” value ([1]; solution of example 8: 20% PG, 40% DMSO, 40% NBPT) was “did not have significant deterioration”. The “NBPT deterioration” value ([1]; solution of example 10: 48.5% glycerine, 1.5% methanol, 25% DMSO, 25% NBPT) was “did not have significant deterioration” and the “NBPT deterioration” value ([1]; solution of example 12: 33.5% glycerine, 1.5% methanol, 25% DMSO, 40% NBPT) was “did not have significant deterioration”.
In the case of `C[S+](C)[O-]` [Dimethyl sulfoxide, dimethyl sulfoxide], the “Oral LD-50” value [2] is listed as 14,500-28,300, the “reducing the viscosity of viscous formulations, DMSO vs. NMP” value [3] is listed as “virtually no difference” and the “Dermal LD-50” value [4] is listed as 40,000. For the same molecule, the “Inhalation toxicity (MADL)” value [5] was “None established”.
For `CC(O)CO` (stereo not shown) [propylene glycol], the dynamic viscosity [6] is listed as 48.8 centipoise.
For `CN1CCCC1=O` [N-methyl pyrrolidone, reference compound], the “Oral LD-50” value [2] is given as 3,914, the “Dermal LD-50” value [4] is given as 8,000 and the “Inhalation toxicity (MADL)” value [5] is given as 3200 µg/day.
